Source: ChEMBL document CHEMBL4196202, “Discovery and Structure-Based Optimization of Benzimidazole-Derived Activators of SOS1-Mediated Nucleotide Exchange on RAS” (J Med Chem, 2018)

How the values were obtained:
[1] = molecular target: T1, Son of sevenless homolog 1 (Homo sapiens, UniProt Q07889); test: Binding affinity to human recombinant N-terminal His6-tagged SOS1 (564 to 1049 residues) expressed in BL21-RIL Escherichia coli by fluorescent probe S2 based fluorescence polarization anisotrophy saturation binding assay
T1 sequence (Q07889 whole entry): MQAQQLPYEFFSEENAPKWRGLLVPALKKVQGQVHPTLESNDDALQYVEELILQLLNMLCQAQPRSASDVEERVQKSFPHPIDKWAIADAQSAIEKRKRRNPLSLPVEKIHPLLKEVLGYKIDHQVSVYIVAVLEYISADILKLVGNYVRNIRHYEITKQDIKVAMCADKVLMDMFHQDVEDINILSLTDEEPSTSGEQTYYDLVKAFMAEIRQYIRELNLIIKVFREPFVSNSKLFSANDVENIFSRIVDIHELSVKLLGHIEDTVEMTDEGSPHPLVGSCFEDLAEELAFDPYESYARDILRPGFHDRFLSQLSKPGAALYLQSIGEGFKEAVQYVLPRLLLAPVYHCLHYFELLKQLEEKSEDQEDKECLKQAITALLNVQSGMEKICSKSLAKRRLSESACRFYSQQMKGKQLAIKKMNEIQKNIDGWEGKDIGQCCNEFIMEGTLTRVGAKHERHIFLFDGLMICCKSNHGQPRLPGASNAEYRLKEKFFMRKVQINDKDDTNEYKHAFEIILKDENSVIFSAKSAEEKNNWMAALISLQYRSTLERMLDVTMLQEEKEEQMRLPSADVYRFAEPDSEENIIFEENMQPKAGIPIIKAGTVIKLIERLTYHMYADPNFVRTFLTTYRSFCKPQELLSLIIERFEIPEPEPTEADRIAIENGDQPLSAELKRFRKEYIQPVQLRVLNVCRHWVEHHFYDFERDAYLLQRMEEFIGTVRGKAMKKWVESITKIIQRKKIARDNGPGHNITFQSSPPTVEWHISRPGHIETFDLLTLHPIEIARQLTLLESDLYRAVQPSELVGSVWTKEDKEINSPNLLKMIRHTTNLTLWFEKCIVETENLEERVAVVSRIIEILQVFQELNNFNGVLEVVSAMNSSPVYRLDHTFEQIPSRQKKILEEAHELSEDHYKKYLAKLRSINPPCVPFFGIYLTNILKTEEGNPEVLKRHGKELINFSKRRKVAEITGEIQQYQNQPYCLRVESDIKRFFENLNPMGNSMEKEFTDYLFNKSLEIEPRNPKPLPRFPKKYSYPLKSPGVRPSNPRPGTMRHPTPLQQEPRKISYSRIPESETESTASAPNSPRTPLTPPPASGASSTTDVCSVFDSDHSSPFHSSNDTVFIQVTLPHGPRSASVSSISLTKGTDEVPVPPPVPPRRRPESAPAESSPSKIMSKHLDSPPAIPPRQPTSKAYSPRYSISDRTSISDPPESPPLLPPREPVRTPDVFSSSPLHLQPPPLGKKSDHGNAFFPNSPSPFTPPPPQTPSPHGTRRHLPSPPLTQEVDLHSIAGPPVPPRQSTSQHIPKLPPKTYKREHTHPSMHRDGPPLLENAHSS

[2] = molecular target: T1, Son of sevenless homolog 1; test: Activation of human recombinant N-terminal His6-tagged SOS1 (564 to 1049 residues) expressed in BL21-RIL Escherichia coli assessed as SOS1-RAS complex formation by measuring exchange of GTP to BODIPY-GDP measured every 3 secs for 30 mins by nucleotide exchange assay
[3] = molecular target: T2, Son of sevenless homolog 1 (Homo sapiens) (UniProt Q07889); test: Activation of human recombinant N-terminal His6-tagged SOS1 (564 to 1049 residues) expressed in BL21-RIL Escherichia coli assessed as SOS1-RAS complex formation by measuring exchange of GTP to BODIPY-GDP measured every 3 secs for 30 mins by nucleotide exchange assay relative to control; parameters: concentration or dose not given beside the values
T2 sequence (whole entry): T1 sequence (Q07889 whole entry)

Row | Kd [1] [µM] | EC50 [2] [µM] | Activity [3] [%] | Structure (SMILES)
1 |  | 5.9 | 130 | Cc1cc2nc(N3CCNCC3)n(Cc3ccc(F)cc3)c2cc1C
2 |  | 19.6 | 148 | Cc1cc2nc(N3CCNCC3)n(Cc3ccc(C(F)(F)F)cc3)c2cc1C
3 | 0.13 |  |  | Cc1cc(Cn2c(N3CCNCC3)nc3c(N4CCOCC4)cc(Cl)cc32)cc(C)c1F
4 |  | 5.9 | 183 | Cc1cc2nc(N3CCNCC3)n(Cc3ccc(F)c(F)c3)c2cc1C
5 | 0.21 |  |  | Cc1ccccc1-c1cc(Cl)cc2c1nc(N1CCNCC1)n2Cc1cc(C)c(F)c(C)c1
6 |  | > 100 |  | Cc1cc2ncn(Cc3ccc(F)c(Cl)c3)c2cc1C
7 |  | 63 | 40 | Fc1ccc(CN2C3=NCCCN3c3ccccc32)cc1
8 |  | 23.2 | 64 | Cc1cc2c(cc1C)N(Cc1ccccc1)C1=NCCCN12
9 | 0.45 |  |  | Cc1cc(Cn2c(N3CCNCC3)nc3c(-c4cccnn4)cc(Cl)cc32)cc(C)c1F
10 |  | 2.4 | 106 | Cc1ccc2nc(N3CCNCC3)n(Cc3ccc(F)c(Cl)c3)c2c1
11 |  | 24.3 | 65 | Fc1ccc(Cn2c(N3CCNCC3)nc3ccc(C4CC4)cc32)cc1Cl
12 |  | 12.4 | 164 | Cc1cc2nc(N3CCNCC3)n(Cc3ccc(Cl)cc3)c2cc1C
13 |  | 37.1 | 129 | Cc1cc2nc(NC3CCNCC3)n(Cc3ccc(F)c(Cl)c3)c2cc1C
14 |  | 8.6 | 122 | Cc1cc2nc(N3CCNCC3)n(Cc3ccccc3)c2cc1C
15 | 0.39 |  |  | Cc1cc(Cn2c(N3CCNCC3)nc3c(-c4cnccn4)cc(Cl)cc32)cc(C)c1F
16 |  | 26 | 143 | Cc1cc2nc(N3CCN(C)CC3)n(Cc3ccc(F)c(Cl)c3)c2cc1C
17 |  | 4.1 | 190 | Cc1cc2nc(N3CCNCC3)n(Cc3ccc(F)c(C)c3)c2cc1C
18 |  | 3.7 | 270 | Cc1cc2nc(N3CCNCC3)n(Cc3cc(C)c(F)c(C)c3)c2cc1C

Row | Kd [1] [µM] | EC50 [2] [µM] | Activity [3] [%] | Structure (SMILES)
19 | 0.24 |  |  | Cc1cc(Cn2c(N3CCNCC3)nc3c(-c4ccncc4)cc(Cl)cc32)cc(C)c1F
20 | 0.24 |  |  | Cc1cc(Cn2c(N3CCNCC3)nc3c(N4CCC[C@@H]4CN)cc(Cl)cc32)cc(C)c1F
21 | 0.18 |  |  | Cc1cc(Cn2c(N3CCNCC3)nc3c(-c4cn[nH]c4)cc(Cl)cc32)cc(C)c1F
22 |  | 8.1 | 263 | Cc1cc2nc(N3CCNCC3)n(Cc3ccc(F)c(C(F)(F)F)c3)c2cc1C
23 | 0.2 |  |  | Cc1cc(Cn2c(N3CCNCC3)nc3c(N4CCCCC4)cc(Cl)cc32)cc(C)c1F
24 |  | 4.4 | 78 | Fc1ccc(Cn2c(N3CCNCC3)nc3ccc(C(F)(F)F)cc32)cc1Cl
25 |  | 1.9 | 114 | Cc1cc2nc(NCCN)n(Cc3ccc(F)c(Cl)c3)c2cc1C
26 | 0.3 |  |  | Cc1cc(Cn2c(N3CCNCC3)nc3c(-c4c(C)cccc4C)cc(Cl)cc32)cc(C)c1F
27 |  | 8.5 | 176 | Cc1cc2nc(N3CCCNCC3)n(Cc3ccc(F)c(Cl)c3)c2cc1C
28 | 0.14 |  |  | Cc1cc(Cn2c(N3CCNCC3)nc3c(-c4ccccc4CO)cc(Cl)cc32)cc(C)c1F
29 |  | 6.6 | 114 | Cc1cc2nc(N3CCC(N)CC3)n(Cc3ccc(F)c(Cl)c3)c2cc1C
30 |  | 1 | 109 | Fc1ccc(Cn2c(N3CCNCC3)nc3ccc(Cl)cc32)cc1Cl
31 |  | 3 | 200 | Cc1cc2nc(N3CCNCC3)n(Cc3ccc(F)c(Cl)c3)c2cc1Cl
32 |  | 5.6 | 128 | Cc1cc2nc(C3CCNCC3)n(Cc3ccc(F)c(Cl)c3)c2cc1C
33 |  | 36.6 | 93 | Cc1ccc(Cn2c(N3CCNCC3)nc3cc(C)c(C)cc32)cc1
34 |  | 11.7 | 151 | Cc1cc2nc(N3CCNCC3)n(Cc3ccc(F)c(C4CC4)c3)c2cc1C
35 |  | 1.3 | 115 | Fc1ccc(Cn2c(N3CCNCC3)nc3ccc(Br)cc32)cc1Cl

Row | Structure (SMILES) | Kd [1] [µM] | EC50 [2] [µM] | Activity [3] [%]
36 | Cc1cc(Cn2c(N3CCNCC3)nc3c(N4CCC[C@@H]4CO)cc(Cl)cc32)cc(C)c1F | 0.38 |  | 
37 | Cc1cc(Cn2c(N3CCNCC3)nc3c(N4CCC[C@H]4CO)cc(Cl)cc32)cc(C)c1F | 0.31 |  | 
